Laboratory results taken from patent US8030354B2, “Substituted biphenyl GPR40 modulators” (Amgen Inc., priority 2007, dated 2011).
pEC50: −log10 of the molar value.

Legend:
GPR40 [1] = target: T1, GPR40 (Homo sapiens, UniProt O14842); test: Cell-based aequorin assay (CHO cells stably expressing GPR40 and aequorin); design: expressed in transfected cells; host or cells: CHO cells stably transfected with GPR40 and aequorin; conditions: activation of human GPR40, CHO cells, 0.01% HSA
Outline: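 CHO cells stably co-expressing GPR40 and aequorin, loaded with coelenterazine (1 ug/mL, 2 h, room temperature) in H/HBSS with 20 mM Hepes and 0.01% fatty acid-free HSA. Serially diluted compounds added; luminescence recorded over 20 s. EC50 from dose-response of maximum relative light units.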

GPR40 [2] = target: T1, GPR40; test: Inositol phosphate accumulation assay (A9_GPR40 cells); assay type: cell-based; design: expressed in transfected cells; host or cells: CHO cells stably transfected with GPR40 and aequorin; conditions: inositol phosphate assay, A9_GPR40 cells, 1 hour; read-out: IP3 EC50
Outline: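 [^3H] inositol phosphate accumulation was measured by SPA after 1 h compound exposure at 37° C in HBSS/10 mM LiCl containing HSA, ending with a 20 mM formic acid quench. The GPR40-transfected A9 cells had first been labelled overnight (16 h) with 1 μCi/mL ^3H-inositol.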

T1 sequence (O14842 whole entry): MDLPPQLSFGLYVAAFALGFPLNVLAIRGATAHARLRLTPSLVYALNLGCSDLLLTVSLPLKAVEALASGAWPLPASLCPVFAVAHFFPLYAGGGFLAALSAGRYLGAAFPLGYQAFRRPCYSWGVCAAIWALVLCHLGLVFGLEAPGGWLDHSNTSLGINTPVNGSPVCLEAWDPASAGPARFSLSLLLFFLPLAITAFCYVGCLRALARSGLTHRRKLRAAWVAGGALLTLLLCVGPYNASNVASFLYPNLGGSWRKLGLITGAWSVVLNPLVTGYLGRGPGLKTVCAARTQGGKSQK

Row | Structure (SMILES) | pEC50 (GPR40 [1]) | pEC50 (GPR40 [2])
1 | COc1ccc(F)c(-c2cc(F)c(COc3cccc(C(CC(=O)O)C4CC4)c3F)cc2C2=CCCC2(C)C)c1 (single isomer, unassigned) [Example 83.16, (3S)-3-Cyclopropyl-3-(3-(((2-(5,5-dimethyl-1-cyclopenten-1-yl)-2′,5-difluoro-5′-(methyloxy)-1,1′-biphenyl-4-yl)methyl)oxy)-2-fluorophenyl)propanoic acid or (3R)-3-cyclopropyl-3-(3-(((2-(5,5-dimethyl-1-cyclopenten-1-yl)-2′,5-difluoro-5′-(methyloxy)-1,1′-biphenyl-4-yl)methyl)oxy)-2-fluorophenyl)propanoic acid] | 6.00 to 7.00 | 7.00 to 8.00
2 | COc1ccc(F)c(-c2c(F)cc(COc3cccc([C@@H](CC(=O)O)C4CC4)c3F)cc2[C@H]2CCCC2(C)C)c1 (single isomer, unassigned) [Example 83.20] | 6.00 to 7.00 | > 8.00
3 | COc1cc(-c2ccc(COc3cccc([C@@H](CC(=O)O)C4CC4)c3F)cc2[C@@H](OC)C(C)(C)C)c(F)cn1 (single isomer, unassigned) [Example 83.21] | 7.00 to 8.00 | > 8.00
4 | COc1ccc(F)c(-c2ccc(COc3cccc([C@@H](CC(=O)O)C4CC4)c3F)cc2[C@@H](OC)C2(C)CC2)c1 (single isomer, unassigned) [Example 83.22] | 7.00 to 8.00 | > 8.00
5 | COc1ccc(F)c(-c2c(F)cc(COc3cccc([C@@H](CC(=O)O)C4CC4)c3F)cc2[C@@H]2CCCC2(C)C)c1 (single isomer, unassigned) [Example 83.24] | 6.00 to 7.00 | 7.00 to 8.00
6 | CC1(C)CCC[C@@H]1c1cc(COc2cccc([C@@H](CC(=O)O)C3CC3)c2F)ccc1-c1cc(F)ccc1F (single isomer, unassigned) [Example 83.25] | 6.00 to 7.00 | 7.00 to 8.00
7 | COc1ccc(F)c(-c2ccc(COc3cccc([C@@H](CC(=O)O)C4CC4)c3F)cc2[C@H](OC)C(C)(C)OC)c1 (single isomer, unassigned) [Example 83.26] | 6.00 to 7.00 | 7.00 to 8.00
8 | CO[C@H](c1cc(COc2cccc([C@@H](CC(=O)O)C3CC3)c2F)ccc1-c1cc(F)ccc1F)C(C)(C)C (single isomer, unassigned) [Example 83.27] | 6.00 to 7.00 | 7.00 to 8.00
9 | CCc1cccc(-c2ccc(COc3cccc([C@@H](CC(=O)O)C4CC4)c3F)cc2[C@H]2CCCC2(C)C)c1 (single isomer, unassigned) [Example 83.28] | 6.00 to 7.00 | 7.00 to 8.00
10 | COc1ccc(F)c(-c2ccc(COc3cccc(C(CC(=O)O)C4CC4)c3F)cc2CN2CCCCCC2)c1 (single isomer, unassigned) [Example 83.29, (3S)-3-(3-(((2-(1-Azepanylmethyl)-2′-fluoro-5′-(methyloxy)-1,1′-biphenyl-4-yl)methyl)oxy)-2-fluorophenyl)-3-cyclopropylpropanoic acid or (3R)-3-(3-(((2-(1-Azepanylmethyl)-2′-fluoro-5′-(methyloxy)-1,1′-biphenyl-4-yl)methyl)oxy)-2-fluorophenyl)-3-cyclopropylpropanoic acid] | 5.00 to 6.00 | 6.00 to 7.00
11 | COc1cc(-c2cc(F)c(COc3cccc([C@@H](CC(=O)O)C4CC4)c3F)cc2[C@H]2CCCC2(C)C)c(F)cn1 (single isomer, unassigned) [Example 83.34] | 7.00 to 8.00 | > 8.00
12 | CC[C@H](CC(=O)O)c1ccc(C)c(OCc2ccc(-c3cc(OC)ccc3F)c(C(C)(C)C)c2)c1 (single isomer, unassigned) [Example 87] | 6.00 to 7.00 | 6.00 to 7.00

The remaining lines, values ahead:

Row | pEC50 (GPR40 [1]) | pEC50 (GPR40 [2]) | Structure (SMILES)
13 | 6.00 to 7.00 | > 8.00 | COc1ccc(F)c(-c2ccc(COc3cccc(C(CC(=O)O)CC4CC4)c3F)cc2C2CCCC2(C)C)c1 (single isomer, unassigned) [Example 84.1]
14 | 6.00 to 7.00 | > 8.00 | COc1ccc(F)c(-c2ccc(COc3cccc(C(CC(=O)O)CC4CC4)c3F)cc2C(OC)C(C)(C)C)c1 (single isomer, unassigned) [Example 84.2]
15 | 6.00 to 7.00 | > 8.00 | COc1ccc(F)c(-c2ccc(COc3cccc(C(CC(=O)O)CC4CC4)c3F)cc2C2CCCC2(C)C)c1 (single isomer, unassigned) [Example 84.3]
16 | 6.00 to 7.00 | > 8.00 | COc1ccc(F)c(-c2cc(F)c(COc3cccc(C(CC(=O)O)CC4CC4)c3F)cc2C2CCCC2(C)C)c1 (single isomer, unassigned) [Example 84.4]
17 | 6.00 to 7.00 | 7.00 to 8.00 | COc1ccc(F)c(-c2ccc(COc3cccc(C(CC(=O)O)CC4CC4)c3F)cc2C2=CCCC2(C)C)c1 (single isomer, unassigned) [Example 84.5, (3R)-4-Cyclopropyl-3-(3-(((2-(5,5-dimethyl-1-cyclopenten-1-yl)-2′-fluoro-5′-(methyloxy)-1,1′-biphenyl-4-yl)methyl)oxy)-2-fluorophenyl)butanoic acid or (3S)-4-cyclopropyl-3-(3-(((2-(5,5-dimethyl-1-cyclopenten-1-yl)-2′-fluoro-5′-(methyloxy)-1,1′-biphenyl-4-yl)methyl)oxy)-2-fluorophenyl)butanoic acid]
18 | 6.00 to 7.00 | > 8.00 | COc1ccc(F)c(-c2ccc(COc3cccc(C(CC(=O)O)CC4CC4)c3F)cc2C2CCCCC2(C)C)c1 (single isomer, unassigned) [Example 84.6]
19 | 7.00 to 8.00 | > 8.00 | COc1ccc(F)c(-c2ccc(COc3cccc(C(CC(=O)O)CC4CC4)c3F)cc2C(F)C(C)(C)C)c1 (single isomer, unassigned) [Example 84.7]
20 | 6.00 to 7.00 | > 8.00 | COc1cc(-c2ccc(COc3cccc(C(CC(=O)O)CC4CC4)c3F)cc2C2CCCC2(C)C)c(F)cn1 (single isomer, unassigned) [Example 84.8]
21 | 6.00 to 7.00 | > 8.00 | COc1cc(-c2ccc(COc3cccc(C(CC(=O)O)CC4CC4)c3F)cc2C(OC)C(C)(C)C)c(F)cn1 (single isomer, unassigned) [Example 84.9]
22 | 6.00 to 7.00 | 7.00 to 8.00 | COc1ccc(F)c(-c2ccc(COc3cccc(C(C)(C)CC(=O)O)c3)cc2C2CCCC2(C)C)c1 (single isomer, unassigned) [Example 85.3, 3-(3-(((2-((1R)-2,2-Dimethylcyclopentyl)-2′-fluoro-5′-(methyloxy)-1,1′-biphenyl-4-yl)methyl)oxy)phenyl)-3-methylbutanoic acid or 3-(3-(((2-((1S)-2,2-dimethylcyclopentyl)-2′-fluoro-5′-(methyloxy)-1,1′-biphenyl-4-yl)methyl)oxy)phenyl)-3-methylbutanoic acid]
23 | 6.00 to 7.00 | 7.00 to 8.00 | COc1cc(-c2ccc(COc3cccc(C(C)(C)CC(=O)O)c3)cc2C2CCCC2(C)C)c(F)cn1 (single isomer, unassigned) [Example 85.4, 3-{3-[3-((S)-2,2-Dimethyl-cyclopentyl)-4-(5-fluoro-2-methoxy-pyridin-4-yl)-benzyloxy]-phenyl}-3-methyl-butyric acid or 3-{3-[3-((R)-2,2-dimethyl-cyclopentyl)-4-(5-fluoro-2-methoxy-pyridin-4-yl)-benzyloxy]-phenyl}-3-methyl-butyric acid]
24 | 6.00 to 7.00 | 7.00 to 8.00 | COc1cc(-c2cc(F)c(COc3cccc(C(C)(C)CC(=O)O)c3)cc2C2CCCC2(C)C)c(F)cn1 (single isomer, unassigned) [Example 85.5, 3-(3-(((5-((1S)-2,2-Dimethylcyclopentyl)-2-fluoro-4-(5-fluoro-2-(methyloxy)-4-pyridinyl)phenyl)methyl)oxy)phenyl)-3-methylbutanoic acid or 3-(3-(((5-((1R)-2,2-dimethylcyclopentyl)-2-fluoro-4-(5-fluoro-2-(methyloxy)-4-pyridinyl)phenyl)methyl)oxy)phenyl)-3-methylbutanoic acid]
25 | 6.00 to 7.00 | 7.00 to 8.00 | COc1cc(-c2ccc(COc3cccc(C(C)(C)CC(=O)O)c3)cc2C(OC)C(C)(C)C)c(F)cn1 (single isomer, unassigned) [Example 85.6, 3-(3-(((3-((1S)-2,2-Dimethyl-1-(methyloxy)propyl)-4-(5-fluoro-2-(methyloxy)-4-pyridinyl)phenyl)methyl)oxy)phenyl)-3-methylbutanoic acid or 3-(3-(((3-((1R)-2,2-dimethyl-1-(methyloxy)propyl)-4-(5-fluoro-2-(methyloxy)-4-pyridinyl)phenyl)methyl)oxy)phenyl)-3-methylbutanoic acid]
26 | 6.00 to 7.00 | 6.00 to 7.00 | CCC(CC(=O)O)c1ccc(F)c(OCc2ccc(-c3cc(OC)ccc3F)c(C3=CCCC3(C)C)c2)c1 (single isomer, unassigned) [Example 86.1, (3R)-3-(3-(((2-(5,5-Dimethyl-1-cyclopenten-1-yl)-2′-fluoro-5′-(methyloxy)-1,1′-biphenyl-4-yl)methyl)oxy)-4-fluorophenyl)pentanoic acid or (3S)-3-(3-(((2-(5,5-dimethyl-1-cyclopenten-1-yl)-2′-fluoro-5′-(methyloxy)-1,1′-biphenyl-4-yl)methyl)oxy)-4-fluorophenyl)pentanoic acid]
27 | 7.00 to 8.00 | > 8.00 | CCC(CC(=O)O)c1cc(F)cc(OCc2ccc(-c3cc(OC)ccc3F)c(C3CCCC3(C)C)c2)c1 (single isomer, unassigned) [Example 88.1]
